Consider one compound from patent US12053528B2, “Topical formulations comprising polyoxyl lipid or fatty acid and polyalkoxylated alcohol, and uses thereof” (Sun Pharmaceutical Industries Limited, priority 2015, dated 2024).

The series in a line: Ocular tissue distribution of RX-10045 nanomicellar formulations (LC-MS/MS). Format: in vivo, New Zealand White Rabbits. Particulars: after topical RX-10045 formulations 4x/day for 5 days. On the procedure:
A study is conducted in rabbits to test the tolerance and ocular tissue distribution of two nanomicellar formulations of active compound against matching placebos (Table 7a and 7b) and balanced saline solution (BSS). Healthy New Zealand female white rabbits (2-3 kg) are used for this study. One drop (approximately 35 μL) of study drug is applied o.d. 4×/day at two hour intervals for 5 days. One drop of BSS is applied to the contralateral eye.
Selected ocular fluids/tissues (aqueous humor, vitreous humor, conjunctiva, cornea, iris-ciliary body, lens, retina/choroid, and sclera) collected from two rabbits each in the active agent (0.15% in HCO-60, 0.1 in HCO-40) treatment groups, and from one rabbit in each of the matching placebo groups, are assayed for active compound by liquid chromatography-tandem mass spectrometry (LC-MS/MS). Warfarin-d5 and 5-HDA are used as internal standards for the analysis of RX-10045 and its active metabolite, RX-10008, respectively, in aqueous humor and vitreous humor. For the other ocular tissues (solid tissues), warfarin-d5 and phenyl acetic acid-d5 (PAA-d5) are used as the internal standards for compound 1001 and RX-10008, respectively. The analytical range for the solid tissues is 0.125-100 ng. The results of the solid tissue analyses are converted to ng/g by correcting for the amount of tissue analyzed.

As for `C#CC[C@@H](O)/C=C/C=C/C#C[C@@H](O)CCCC(=O)OC(C)C` [compound 1001], the “Compound 1001 in the majority of ocular tissues” value is reported as “either not detected or is below the quantitation limit of the assay”; the “Concentrations of the compound 1001 ester prodrug in the sclera and conjunctiva” value is given as “sporadic, relatively low”; the “Hydrolysis to active metabolite RX-10008 in ocular tissues” value is “rapidly hydrolyzed”.
